These results are taken from BindingDB's records for patent US11447487 (Bristol-Myers Squibb Company, 2022).

The target of this assay is Rho-associated protein kinase 2 (Homo sapiens, UniProt O75116). The assay is described as follows: In Vitro Assays. The procedure:
The effectiveness of compounds of the present invention as ROCK inhibitors can be determined in a 30 μL assay containing 20 mM HEPES, pH 7.5, 20 mM MgCl2, 0.015% Brij-35, 4 mM DTT, 5 μM ATP and 1.5 μM peptide substrate (FITC-AHA-AKRRRLSSLRA-OH) (SEQ ID No. 1). Compounds were dissolved in DMSO so that the final concentration of DMSO was <2%, and the reaction was initiated with Rho kinase variants. After incubation, the reaction was terminated by the addition of EDTA and the phosphorylated and non-phosphorylated peptides separated using a LABCHIP 3000 Reader (Caliper Life Sciences). […] Compounds were tested in dose-response format, and the inhibition of kinase activity was calculated at each concentration of compound. The inhibition data were fit using a curve-fitting program to determine the IC50; i.e., the concentration of compound required to inhibit 50% of kinase activity.

Chain of Rho-associated protein kinase 2 (O75116 whole entry): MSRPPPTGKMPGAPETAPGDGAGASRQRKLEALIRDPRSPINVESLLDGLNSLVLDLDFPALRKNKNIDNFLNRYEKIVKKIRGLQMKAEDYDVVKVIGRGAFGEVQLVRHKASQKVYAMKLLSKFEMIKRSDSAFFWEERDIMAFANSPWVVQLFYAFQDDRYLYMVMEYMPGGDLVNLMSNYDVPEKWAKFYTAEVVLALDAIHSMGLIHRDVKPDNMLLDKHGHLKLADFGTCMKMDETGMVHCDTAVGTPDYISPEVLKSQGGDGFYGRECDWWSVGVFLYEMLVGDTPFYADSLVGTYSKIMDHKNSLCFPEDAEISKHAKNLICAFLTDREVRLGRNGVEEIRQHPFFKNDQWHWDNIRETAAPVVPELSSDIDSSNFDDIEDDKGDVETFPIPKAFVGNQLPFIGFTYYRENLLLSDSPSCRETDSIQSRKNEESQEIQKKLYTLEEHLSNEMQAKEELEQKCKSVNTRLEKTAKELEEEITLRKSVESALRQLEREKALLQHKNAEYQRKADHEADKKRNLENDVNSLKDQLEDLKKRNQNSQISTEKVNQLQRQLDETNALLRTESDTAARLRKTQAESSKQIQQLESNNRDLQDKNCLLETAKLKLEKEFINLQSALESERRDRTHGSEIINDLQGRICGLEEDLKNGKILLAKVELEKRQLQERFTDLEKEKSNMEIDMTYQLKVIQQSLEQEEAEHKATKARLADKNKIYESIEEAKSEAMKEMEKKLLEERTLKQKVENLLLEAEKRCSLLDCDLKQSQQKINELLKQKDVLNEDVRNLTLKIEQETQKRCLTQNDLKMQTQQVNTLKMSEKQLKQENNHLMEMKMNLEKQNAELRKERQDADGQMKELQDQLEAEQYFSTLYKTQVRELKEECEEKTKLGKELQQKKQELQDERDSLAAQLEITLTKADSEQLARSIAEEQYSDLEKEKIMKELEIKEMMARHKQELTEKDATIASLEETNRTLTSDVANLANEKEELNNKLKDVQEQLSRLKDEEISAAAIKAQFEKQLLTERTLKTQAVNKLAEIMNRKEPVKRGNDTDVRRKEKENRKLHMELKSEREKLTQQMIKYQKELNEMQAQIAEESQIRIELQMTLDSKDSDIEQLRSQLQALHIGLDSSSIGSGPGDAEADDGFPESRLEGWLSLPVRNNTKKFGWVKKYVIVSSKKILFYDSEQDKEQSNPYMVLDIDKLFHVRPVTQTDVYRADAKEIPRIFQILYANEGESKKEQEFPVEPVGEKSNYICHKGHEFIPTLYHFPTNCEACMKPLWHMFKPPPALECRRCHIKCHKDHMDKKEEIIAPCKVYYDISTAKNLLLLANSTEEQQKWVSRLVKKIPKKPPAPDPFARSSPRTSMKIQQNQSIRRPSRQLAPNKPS

Compound `NC(=O)c1cccnc1O[C@H]1CC2(C1)C[C@H](N1C(=O)NC(CCC3CCCCC3)C1=O)C2` (stereo partly drawn) [US11447487, Example 4] returned an IC50 of 13 nM. That is a double-digit nanomolar value.
Take `NC(=O)c1cccnc1O[C@H]1CC2(C1)C[C@H](N1C(=O)CC(Cc3ccccc3)NC1=O)C2` (stereo partly drawn) [US11447487, Example 76]: the half-inhibitory concentration (IC50) turned out to be 456 nM.
For the compound `NC(=O)c1cccnc1O[C@H]1CC2(C1)C[C@H](N1C(=O)CN(c3ccc(OC(F)(F)F)cc3)C1=O)C2` (stereo partly drawn) [US11447487, Example 86], the midpoint of inhibition, the IC50, lay at 6 nM.

A word on the IC50: it is the concentration that inhibits the measured activity by half. High values mean weaker potency, low ones greater potency.
